From ChEMBL document CHEMBL1138955, “Novel gamma-secretase inhibitors discovered by library screening of in-house synthetic natural product intermediates” (Bioorg Med Chem Lett, 2006)

Legend:
Gamma-secretase [1] = test: Inhibition of beta amyloid protein 42; assay type: protein-complex assay, Homo sapiens
Gamma-secretase [2] = test: Inhibition of beta amyloid protein 40; assay type: protein-complex assay, Homo sapiens
[3] = biological target: Gamma-secretase (Homo sapiens) (UniProt Q96BI3+Q9NZ42+Q8WW43+P49768+Q92542+P49810); test: Inhibition of beta amyloid protein 40 at 100 uM; assay type: protein-complex assay

| IC50 (Gamma-secretase [1]) [µM] | IC50 (Gamma-secretase [2]) [µM] | inhibition [3] [%] | Structure (SMILES) |
| --- | --- | --- | --- |
| 9.8 | 7.2 |  | COC(=O)N1CC=CC(=O)C1Cc1ccccc1 (stereo not drawn) |
| > 100 | > 100 |  | COC(=O)N1CCCC(O)C1Cc1ccccc1 (stereo not drawn) |
| > 100 | > 100 |  | CO[C@@H]1CC(O)CC(=O)[C@H]1OCc1ccccc1 (stereo partly drawn) |
| 2.2 | 1 |  | O=C1C=CCN(C(=O)c2ccccc2)C1Cc1ccccc1 (stereo not drawn) |
| 13.9 | 4.9 |  | CO[C@@H]1CCCC(=O)[C@H]1OCc1ccccc1 |
| 0.7 | 0.5 |  | O=C1C=CC(O)N(C(=O)OCc2ccccc2)C1Cc1ccccc1 (stereo not drawn) |
| > 100 |  | 21 | O=C1CCCN(C(=O)OCc2ccccc2)C1Cc1ccccc1 (stereo not drawn) |
| > 100 | > 100 |  | COC(=O)N1CCCC(=O)C1Cc1ccccc1 (stereo not drawn) |
| > 100 | > 100 |  | CO[C@@H]1C(=O)CC(O)C[C@H]1OCc1ccccc1 (stereo partly drawn) |
| > 100 | > 100 |  | CO[C@@H]1C(=O)CCC[C@H]1O |
| 10.2 | 6.9 |  | CO[C@@H]1CC=CC(=O)[C@H]1OCc1ccccc1 |
| 26 | 33.9 |  | CO[C@@H]1C(=O)C=CC[C@H]1OCc1ccccc1 |
| 1.1 | 1.6 |  | O=C1C=CC[C@@H](OCc2ccccc2)[C@@H]1OCc1ccccc1 |
| > 100 | > 100 |  | O=C(OCc1ccccc1)N1CCCC(O)C1Cc1ccccc1 (stereo not drawn) |
| > 100 | > 100 |  | CO[C@@H]1C(=O)CCC[C@H]1OCc1ccccc1 |
| > 100 | > 100 |  | O=C1CCC[C@@H](OCc2ccccc2)[C@@H]1OCc1ccccc1 |
| 7.4 | 4.6 |  | O=C1C=CCN(C(=O)OCc2ccccc2)C1Cc1ccccc1 (stereo not drawn) |
| 12.3 | 5.9 |  | O=C1C=CCN(S(=O)(=O)c2ccccc2)C1Cc1ccccc1 (stereo not drawn) |
| > 100 | > 100 |  | CO[C@@H]1CCCC(=O)[C@H]1O |
